Measured values taken from PubChem BioAssay AID651989 (The Scripps Research Institute Molecular Screening Center, 2013).
Active and inactive are the calls of the source. How the calls were made is not given here.

Biological target: methionyl-tRNA synthetase (Trypanosoma brucei brucei) (UniProt Q38C91)
Assay: T. brucei MetRS inhibitors, dose response, orthogonal assay for T. brucei MetRS inhibitor project, biochemical, fluorescence polarization (AID 651989)
Conditions: Fluorescence polarization biochemical MetRS inhibition

methionyl-tRNA synthetase (Trypanosoma brucei brucei), sequence (Q38C91 1-773): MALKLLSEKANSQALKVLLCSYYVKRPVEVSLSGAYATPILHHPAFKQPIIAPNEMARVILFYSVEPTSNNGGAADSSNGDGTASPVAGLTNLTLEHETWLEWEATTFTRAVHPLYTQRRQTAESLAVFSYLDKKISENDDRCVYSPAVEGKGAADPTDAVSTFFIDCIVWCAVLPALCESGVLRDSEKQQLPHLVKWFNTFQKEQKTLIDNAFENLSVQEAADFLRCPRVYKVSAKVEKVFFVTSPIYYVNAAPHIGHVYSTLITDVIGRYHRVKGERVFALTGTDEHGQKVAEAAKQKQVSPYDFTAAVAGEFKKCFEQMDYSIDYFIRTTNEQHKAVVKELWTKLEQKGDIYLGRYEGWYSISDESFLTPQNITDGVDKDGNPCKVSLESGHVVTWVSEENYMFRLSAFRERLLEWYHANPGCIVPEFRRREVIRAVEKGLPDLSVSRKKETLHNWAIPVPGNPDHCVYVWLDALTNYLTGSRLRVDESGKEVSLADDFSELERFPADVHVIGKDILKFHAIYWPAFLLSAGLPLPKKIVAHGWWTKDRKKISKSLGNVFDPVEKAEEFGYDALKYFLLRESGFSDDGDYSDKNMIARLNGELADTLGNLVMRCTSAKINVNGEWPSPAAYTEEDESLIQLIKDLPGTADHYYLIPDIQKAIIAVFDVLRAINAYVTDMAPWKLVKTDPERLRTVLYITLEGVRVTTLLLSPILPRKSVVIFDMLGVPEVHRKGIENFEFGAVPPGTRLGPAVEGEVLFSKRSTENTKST

IC50, inactive:
O=C(Cc1ccc(Br)cc1)NNC(=O)Nc1ccc(Cl)cc1 > 119 µM
O=C(OCC(=O)c1c[nH]c2ccccc12)c1ccc(OC(F)F)cc1 > 119 µM
Clc1ccccc1-c1ccc2ncnc(NCc3ccc4c(c3)OCO4)c2c1
N#Cc1ccccc1CSc1ccc(-c2nc3ccccc3[nH]2)cn1 > 119 µM
N#Cc1ccccc1CSc1nc2ncc(Br)cc2[nH]1 > 119 µM
COc1ccc(NC(=O)COC(=O)CCCOc2ccc(Cl)cc2Cl)cc1 > 119 µM
COc1ccc(CC(=O)OCC(=O)Nc2ccc(Br)cc2)cc1 > 119 µM
Cc1ccc(C(=O)Nn2c(O)c(C=C3N=c4ccccc4=N3)sc2=S)cc1 > 119 µM
Cc1cc(Cl)ccc1OCCCC(=O)NNC(=O)c1ccccc1O > 119 µM
O=C(NCc1cc(Br)cc(Br)c1OC(=O)c1ccccc1[N+](=O)[O-])c1ccccc1 > 119 µM
Cc1cc2c(c(=O)n1CC1CCCO1)C(c1ccc3c(c1)OCO3)C(C#N)=C(N)O2 (stereo not drawn) > 119 µM
COc1cc(OC)c(OC)cc1/C=N/Nc1nc2ccccc2[nH]1 > 119 µM
CO/N=C(\c1nonc1N)N1CCN(c2ccc(Cl)cc2[N+](=O)[O-])CC1 > 119 µM
